Measured values taken from patent US20100267952A1, “USE OF NOVEL COMPOUND HAVING AFFINITY FOR AMYLOID, AND PROCESS FOR PRODUCTION OF THE SAME” (NIHON MEDI-PHYSICS CO., LTD., priority 2007, published 2010).

How the values were obtained:
[1] = Transferability into brain and clearance (2); assay type: in vivo, male Wistar rats; settings: rats, intravenous injection, Table 1-10
Description: 0.05 mL each of these solutions was injected under thiopental anesthesia into the tail vein of respective Wistar rats (7-week old). The rats were sacrificed by bleeding from abdominal artery, and brains were removed and subjected to measurement of mass of brains and further subjected to measurement of radioactivity (hereinafter referred to as A in this Example) with a single channel analyzer (detector type: SP-20 manufactured by OHYO KOKEN KOGYO Co., Ltd.) 2, 5, 30 and 60 minutes after the injection. Also, radioactivity (hereinafter referred to as B in this Example) of the rest of the whole body was measured in the same manner as above. Using these measurement results, radioactive distribution per unit weight of brain (% ID/g) at the respective time points were calculated in accordance with the following formula (1-7).
Three animals were used for experiment at the respective time points.

[2] = Radioactive distribution ratio in each organ; assay type: in vivo, SD rat
Description: 0.2 mL each of the prepared sample solution was administered under non-thiopental anesthesia into the tail vein of the above rat. The rats were sacrificed by bleeding from abdominal artery, and each organ shown in Table 3 was removed 5, 30, 60 and 180 minutes after the administration. […] Also, radioactivity of the whole body of the rat after removal of the organs (hereinafter referred to as rest of the whole body) was measured. Using these measurement results, radioactive distribution per unit weight of each organ (% ID/g) at the respective time points was calculated in accordance with the following formula (3).
Three animals were used for the experiment at the respective time points.
R^T: Radioactivity of target organ (cpm) R^S: Sum of radioactivity of all the organs (cpm) R^R: Radioactivity of the rest of the whole body (cpm) M^T: Mass of target organ (g)

[3] = target: T1, amyloid (aggregated Aβ1-42) injected into amygdaloid nucleus (Homo sapiens, UniProt P05067); assay: Confirmation of imaging of amyloid in brain (autoradiogram of brain slice, Aβ1-42 injected rat); assay type: in vivo, male Wistar rat; settings: tail vein, 11-15 MBq equivalent, brain removed 60 minutes after injection
T1 construct: Aβ1-42 (Wako) was dissolved in phosphate buffer (pH 7.4); purchased Wako
Description: (1) Aβ1-42 (Wako) was dissolved in phosphate buffer (pH 7.4) and shaken at 37° C. for 72 hours, to obtain a 1 mg/mL suspension of aggregated Aβ (hereinafter referred to as amyloid suspension in this Example).
(2) 2.5 μL (corresponding to 25 μg) of the amyloid suspension was injected into an amygdaloid nucleus on one side of a male Wistar rat (7-week old). As a control, 2.5 μL of a phosphate buffered physiological saline solution (pH 7.4) was injected into an amygdaloid nucleus on the other side of the rat. The rats were examined 1 day after the injection of the amyloid suspension and the phosphate buffered physiological saline solution (pH 7.4).
This solution was injected under thiopental anesthesia into the rat through the tail vein (dosage: 0.5 mL, dosed radioactivity: 11-15 MBq equivalent).
(4) Brain was removed 60 minutes after the injection to prepare a brain slice of 10 μm in thickness with a microtome (type: CM3050S, manufactured by LEICA). The brain slice was exposed to an imaging plate for 20 hours, and then image analysis was carried out by use of a Bio-imaging Analyzer (type: BAS-2500; manufactured by FUJIFILM Corporation).

[4] = SD rat, tail vein, 5 min. after administration
[5] = SD rat, tail vein, 30 min. after administration
[6] = SD rat, tail vein, 60 min. after administration
[7] = SD rat, tail vein, 180 min. after administration

T1 sequence (P05067 672-713): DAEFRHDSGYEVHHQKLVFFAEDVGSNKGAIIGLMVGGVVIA

In the case of `FCCOc1ccc(-c2cn3cc([123I])ccc3n2)cc1` [Compound I-9, 2-[4′-(2″-fluoroethoxy)phenyl]-6-[^123I]iodoimidazo[1,2-a]pyridine], the “Radioactive distribution per unit weight in brain, After 2 min.” value ([1]; 2 min.) is reported as 0.72 % ID/g, the “Radioactive distribution per unit weight in brain, After 5 min.” value ([1]; 5 min.) is reported as 0.49 % ID/g and the “Radioactive distribution per unit weight in brain, After 30 min.” value ([1]; 30 min.) is reported as 0.07 % ID/g. For the same compound, the “Radioactive distribution per unit weight in brain, After 60 min.” value ([1]; 60 min.) was 0.02 % ID/g, the “excretion / clearance to the outside of the body” value ([2]; SD rat, tail vein) was “biliary-excreted rapidly after the administration” and the “Radioactive distribution per unit weight, Adrenal gland, Average” value [2, 4] was 3.914 % ID/g. The “Radioactive distribution per unit weight, Adrenal gland, Average” value [2, 5] was 0.457 % ID/g, the “Radioactive distribution per unit weight, Adrenal gland, Average” value [2, 6] was 0.260 % ID/g and the “Radioactive distribution per unit weight, Adrenal gland, Average” value [2, 7] was 0.017 % ID/g. The “Radioactive distribution per unit weight, Blood, Average” value [2, 4] was 0.370 % ID/g, the “Radioactive distribution per unit weight, Blood, Average” value [2, 5] was 0.142 % ID/g and the “Radioactive distribution per unit weight, Blood, Average” value [2, 6] was 0.108 % ID/g. For the same compound, the “Radioactive distribution per unit weight, Blood, Average” value [2, 7] was 0.074 % ID/g, the “Radioactive distribution per unit weight, Bone, Average” value [2, 4] was 0.187 % ID/g and the “Radioactive distribution per unit weight, Bone, Average” value [2, 5] was 0.067 % ID/g. The “Radioactive distribution per unit weight, Bone, Average” value [2, 6] was 0.045 % ID/g, the “Radioactive distribution per unit weight, Bone, Average” value [2, 7] was 0.032 % ID/g and the “Radioactive distribution per unit weight, Brain, Average” value [2, 4] was 0.701 % ID/g. For the same compound, the “Radioactive distribution per unit weight, Brain, Average” value [2, 5] was 0.067 % ID/g, the “Radioactive distribution per unit weight, Brain, Average” value [2, 6] was 0.026 % ID/g and the “Radioactive distribution per unit weight, Brain, Average” value [2, 7] was 0.007 % ID/g. For the same compound, the “Radioactive distribution per unit weight, Heart, Average” value [2, 4] was 0.551 % ID/g, the “Radioactive distribution per unit weight, Heart, Average” value [2, 5] was 0.111 % ID/g and the “Radioactive distribution per unit weight, Heart, Average” value [2, 6] was 0.059 % ID/g. For the same compound, the “Radioactive distribution per unit weight, Heart, Average” value [2, 7] was 0.030 % ID/g, the “Radioactive distribution per unit weight, Kidney, Average” value [2, 4] was 1.114 % ID/g and the “Radioactive distribution per unit weight, Kidney, Average” value [2, 5] was 0.560 % ID/g. For the same compound, the “Radioactive distribution per unit weight, Kidney, Average” value [2, 6] was 0.302 % ID/g, the “Radioactive distribution per unit weight, Kidney, Average” value [2, 7] was 0.108 % ID/g and the “Radioactive distribution per unit weight, Large intestine, Average” value [2, 4] was 0.106 % ID/g. For the same compound, the “Radioactive distribution per unit weight, Large intestine, Average” value [2, 5] was 0.070 % ID/g, the “Radioactive distribution per unit weight, Large intestine, Average” value [2, 6] was 0.074 % ID/g and the “Radioactive distribution per unit weight, Large intestine, Average” value [2, 7] was 5.241 % ID/g. The “Radioactive distribution per unit weight, Liver, Average” value [2, 4] was 2.399 % ID/g, the “Radioactive distribution per unit weight, Liver, Average” value [2, 5] was 0.337 % ID/g and the “Radioactive distribution per unit weight, Liver, Average” value [2, 6] was 0.178 % ID/g. The “Radioactive distribution per unit weight, Liver, Average” value [2, 7] was 0.067 % ID/g, the “Radioactive distribution per unit weight, Lung, Average” value [2, 4] was 0.647 % ID/g and the “Radioactive distribution per unit weight, Lung, Average” value [2, 5] was 0.192 % ID/g. For the same compound, the “Radioactive distribution per unit weight, Lung, Average” value [2, 6] was 0.130 % ID/g, the “Radioactive distribution per unit weight, Lung, Average” value [2, 7] was 0.074 % ID/g and the “Radioactive distribution per unit weight, Marrow, Average” value [2, 4] was 0.815 % ID/g. For the same compound, the “Radioactive distribution per unit weight, Marrow, Average” value [2, 5] was 0.075 % ID/g, the “Radioactive distribution per unit weight, Marrow, Average” value [2, 6] was 0.000 % ID/g and the “Radioactive distribution per unit weight, Marrow, Average” value [2, 7] was 0.000 % ID/g. The “Radioactive distribution per unit weight, Muscle, Average” value [2, 4] was 0.239 % ID/g, the “Radioactive distribution per unit weight, Muscle, Average” value [2, 5] was 0.052 % ID/g and the “Radioactive distribution per unit weight, Muscle, Average” value [2, 6] was 0.031 % ID/g. For the same compound, the “Radioactive distribution per unit weight, Muscle, Average” value [2, 7] was 0.016 % ID/g, the “Radioactive distribution per unit weight, Pancreas, Average” value [2, 4] was 0.650 % ID/g and the “Radioactive distribution per unit weight, Pancreas, Average” value [2, 5] was 0.236 % ID/g. The “Radioactive distribution per unit weight, Pancreas, Average” value [2, 6] was 0.115 % ID/g, the “Radioactive distribution per unit weight, Pancreas, Average” value [2, 7] was 0.073 % ID/g and the “Radioactive distribution per unit weight, Small intestine, Average” value [2, 4] was 1.259 % ID/g. For the same compound, the “Radioactive distribution per unit weight, Small intestine, Average” value [2, 5] was 6.598 % ID/g, the “Radioactive distribution per unit weight, Small intestine, Average” value [2, 6] was 8.235 % ID/g and the “Radioactive distribution per unit weight, Small intestine, Average” value [2, 7] was 2.657 % ID/g. The “Radioactive distribution per unit weight, Spleen, Average” value [2, 4] was 0.442 % ID/g, the “Radioactive distribution per unit weight, Spleen, Average” value [2, 5] was 0.092 % ID/g and the “Radioactive distribution per unit weight, Spleen, Average” value [2, 6] was 0.069 % ID/g. The “Radioactive distribution per unit weight, Spleen, Average” value [2, 7] was 0.037 % ID/g, the “Radioactive distribution per unit weight, Stomach, Average” value [2, 4] was 0.287 % ID/g and the “Radioactive distribution per unit weight, Stomach, Average” value [2, 5] was 0.619 % ID/g. The “Radioactive distribution per unit weight, Stomach, Average” value [2, 6] was 0.672 % ID/g, the “Radioactive distribution per unit weight, Stomach, Average” value [2, 7] was 0.812 % ID/g and the “ratio (% ID/g at 5 minutes after the administration)/(% ID/g at 180 minutes after the administration)” value ([2]; bone) was 6. For the same compound, the “ratio (% ID/g at 5 minutes after the administration)/(% ID/g at 180 minutes after the administration)” value ([2]; brain) was 94, the “ratio (% ID/g at 5 minutes after the administration)/(% ID/g at 180 minutes after the administration)” value ([2]; heart) was 18 and the “ratio (% ID/g at 5 minutes after the administration)/(% ID/g at 180 minutes after the administration)” value ([2]; lung) was 9. The “ratio (% ID/g at 5 minutes after the administration)/(% ID/g at 180 minutes after the administration)” value ([2]; pancreas) was 9 and the “accumulation of radioactivity in amygdaloid nucleus on the amyloid-injected side (autoradiogram)” value [3] was “marked accumulation of radioactivity”.
